Assays:
[1] = tested on: sound-induced seizures in DBA mice; experiment: Audiogenic seizure (AGS) model in DBA/2 mice; assay type: in vivo, mouse
Source text: This study examined the anti-seizure efficacy of Compound 1 against to reference compounds (Diazepam and Sipatrigine) using the audiogenic mouse model as the test platform.
DBA mice are well established in the literature as a model for audiogenic seizures (AGS). This genetically based model is attractive for testing potential therapeutics in that no treatment protocol is required to create the condition. It is classified as inherited idiopathic epilepsy with no known associated organic disease.
The AGS response in these mice consists of a progressive sequence of behaviors. The latency to onset may vary from 2 to 15 seconds, and is age variant. The initial wild running phase may be divided into an early running phase that varies from 5 tp 20 seconds, followed by a wild running phase that continues for 10-20 seconds. Wild running may progress to tonic/clonic seizures, with loss of righting ability, respiratory suppression and death.
We a scoring system to quantify the effects of the test compounds on the induction of seizures. The behavioral sequence was assigned ascending numerical values (Table 1), and the highest numerical value reached by an animal was that animal's score.
Animals. Male DBA/2 mice were obtained from Jackson Laboratories at 21 day post partum. The animals were acclimated for 1 or 2 days prior to use. Individual animal weights were recorded immediately before treatment. Surviving animals were euthanized within three days of completion of testing.
Seizure Induction. Mice were placed in a test chamber (25 cm i.d.) and exposed to pure tone sound of 11 kHz at a minimum of 116 dB for approximately 60 s until a sequential seizure response, consisting of an early wild running phase, followed by generalized myoclonus and tonic flexion and extension, was obtained. Non-responders were challenged up to five times. Ten animals were obtained by this method for each intended treatment group, with a standard deviation in their maximum score of less than 25%. The acoustic stimulus signal was produced using a signal generator and projected via four high-frequency ceramic speakers mounted on the roof of the chamber. Chamber calibration was performed daily to ensure consistent sound pressure. AGS behaviors were videotaped for later analysis.
I.P. injections: The 10 animals in each treatment group were injected intra-peritoneally with the test drug in a volume of 10 mL/kg of body weight. Injections were 60 min prior to sound challenge.
Data analyses: Data were tested for normal distribution, and (when normal) were analyzed using ANOVA followed by Student's t test. When the data were not normally distributed, analysis was with the Mann-Whitney rank sum test. Significance was set at p<0.05.

[2] = molecular target: T1, HEK cells expressing Nav1.3 (HEK-Nav1.3) (Homo sapiens, UniProt Q9NY46); experiment: High-throughput VIPR FRET assay of persistent sodium current-dependent depolarization with K+ counter-screen; assay type: cell-based; conditions: tetracaine 10 μM, FIG. 2
T1 construct: expressed in transfected cells

[3] = Estimated plasma concentration after i.p. dosing in the AGS study; assay type: in vivo; conditions: DBA, mouse, intraperitoneal, 1 mg/kg i.p., 60 minutes after dosing
[4] = DBA mice, 60 minutes after dosing, Compound 1 1 mg/kg, references at predicted doses
[5] = DBA/2 mice, i.p. 60 min before sound challenge, scale 1-8, Diazepam 0.15, Sipatrigine 3, Compound 1 1 mg/kg, control 4.8 ± 1.9

T1 sequence (Q9NY46 whole entry): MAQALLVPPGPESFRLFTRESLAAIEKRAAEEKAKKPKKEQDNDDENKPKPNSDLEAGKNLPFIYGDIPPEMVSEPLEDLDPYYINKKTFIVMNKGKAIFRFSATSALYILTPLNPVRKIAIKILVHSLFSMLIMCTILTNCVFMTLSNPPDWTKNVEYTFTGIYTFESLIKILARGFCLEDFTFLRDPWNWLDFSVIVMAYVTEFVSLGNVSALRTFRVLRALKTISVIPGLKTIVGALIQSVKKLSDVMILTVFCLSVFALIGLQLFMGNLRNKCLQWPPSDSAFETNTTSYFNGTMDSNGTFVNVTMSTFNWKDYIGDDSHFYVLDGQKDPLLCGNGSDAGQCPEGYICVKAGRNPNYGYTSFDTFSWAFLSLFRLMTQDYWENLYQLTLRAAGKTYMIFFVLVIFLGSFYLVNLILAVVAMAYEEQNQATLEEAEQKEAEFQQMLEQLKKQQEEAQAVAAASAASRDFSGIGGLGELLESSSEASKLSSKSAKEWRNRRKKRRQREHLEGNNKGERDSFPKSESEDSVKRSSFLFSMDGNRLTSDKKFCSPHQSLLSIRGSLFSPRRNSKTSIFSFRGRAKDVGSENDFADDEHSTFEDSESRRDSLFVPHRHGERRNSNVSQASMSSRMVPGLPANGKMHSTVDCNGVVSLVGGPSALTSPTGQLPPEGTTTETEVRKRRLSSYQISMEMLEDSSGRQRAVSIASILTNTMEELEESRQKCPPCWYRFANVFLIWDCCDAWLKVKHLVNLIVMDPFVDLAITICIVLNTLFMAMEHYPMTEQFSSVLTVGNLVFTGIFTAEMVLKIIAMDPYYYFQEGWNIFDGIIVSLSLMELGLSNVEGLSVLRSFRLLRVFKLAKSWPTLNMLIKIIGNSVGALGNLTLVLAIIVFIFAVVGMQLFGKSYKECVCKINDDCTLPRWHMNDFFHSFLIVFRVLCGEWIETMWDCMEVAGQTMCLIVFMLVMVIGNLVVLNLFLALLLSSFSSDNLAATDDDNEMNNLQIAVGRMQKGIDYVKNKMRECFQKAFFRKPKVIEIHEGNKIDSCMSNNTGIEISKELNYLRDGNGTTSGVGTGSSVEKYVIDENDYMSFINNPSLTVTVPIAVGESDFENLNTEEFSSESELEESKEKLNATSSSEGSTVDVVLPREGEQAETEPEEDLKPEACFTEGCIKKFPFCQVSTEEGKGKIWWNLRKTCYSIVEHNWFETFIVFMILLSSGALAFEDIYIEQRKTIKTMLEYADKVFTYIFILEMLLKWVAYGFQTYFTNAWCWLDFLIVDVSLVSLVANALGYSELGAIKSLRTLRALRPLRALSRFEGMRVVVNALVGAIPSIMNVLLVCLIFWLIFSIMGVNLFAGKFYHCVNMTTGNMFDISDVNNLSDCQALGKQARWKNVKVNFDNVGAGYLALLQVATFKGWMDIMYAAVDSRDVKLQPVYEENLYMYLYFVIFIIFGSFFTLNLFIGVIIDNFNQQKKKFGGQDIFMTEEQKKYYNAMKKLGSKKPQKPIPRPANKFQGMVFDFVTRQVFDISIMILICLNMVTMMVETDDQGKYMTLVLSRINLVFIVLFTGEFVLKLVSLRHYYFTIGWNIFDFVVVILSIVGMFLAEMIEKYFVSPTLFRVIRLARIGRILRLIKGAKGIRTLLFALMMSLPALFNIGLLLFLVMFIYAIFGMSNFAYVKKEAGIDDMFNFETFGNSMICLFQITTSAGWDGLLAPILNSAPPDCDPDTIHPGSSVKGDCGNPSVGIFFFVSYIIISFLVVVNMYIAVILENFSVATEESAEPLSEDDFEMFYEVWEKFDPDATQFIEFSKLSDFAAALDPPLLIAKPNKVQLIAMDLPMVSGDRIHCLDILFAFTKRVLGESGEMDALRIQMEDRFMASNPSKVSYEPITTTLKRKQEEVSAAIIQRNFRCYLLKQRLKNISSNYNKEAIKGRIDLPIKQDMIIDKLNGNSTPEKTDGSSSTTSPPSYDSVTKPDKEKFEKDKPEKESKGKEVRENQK

For `CN1C(=O)CN=C(c2ccccc2)c2cc(Cl)ccc21` [Diazepam], which “Seizure score (AGS), Mean ± s.d.” value ([1]; mouse, in vivo) is on record?
Its value is 3.1 ± 1.1.

What about the “behavioral/seizure response to sound-induced seizures” value ([1]; mouse, in vivo, 1 mg/kg) of the same compound?
Its value is “effective”.

What does the source list for `CN1CCN(c2ncc(-c3cc(Cl)cc(Cl)c3Cl)c(N)n2)CC1` [Sipatrigine]?
behavioral/seizure response to sound-induced seizures [1, 4]: effective; Seizure score (AGS), Mean ± s.d. [1, 5]: 3.3 ± 1.7

Which results are given for `CCCCNc1ccc(C(=O)OCCN(C)C)cc1` [Tetracaine]?
K+-dependent change in Rf/Ri (depolarization, counter-screen) [2]: not; Na+-dependent change in Rf/Ri (depolarization) [2]: inhibited

For `O=C(NCCCCc1ccccc1)c1cccs1` [Compound 1, thiophene-2-carboxylic acid (4-phenyl-butyl)-amide], which “behavioral/seizure response to sound-induced seizures” value [1, 4] is on record?
The value was “significantly reduced”.

And the “Seizure score (AGS), Mean ± s.d.” value [1, 5]?
Its value is 3.2 ± 2.3.

And the concentration at 60 min [3]?
Its concentration at 60 min is about 5 µM.
